Data on seven compounds can be found in publication PMC10845965, “Gold(I) ion and the phosphine ligand are necessary for the anti-Toxoplasma gondii activity of auranofin” (Microbiology Spectrum, 2024).

Data set [1] has as its system Leishmania spp. (promastigotes and amastigotes). More on the design: method as in PMID 24328400. The conditions noted are these: cited from earlier work.
Data set [2] concerns HFF host cells. The data set is described as follows: Host cell viability and TD50 determination. It counts as cell-based, human. As to conditions: 5 days incubation, tetrazolium assay. On the procedure:
Confluent monolayers of HFF host cells (approximately 1 × 10^4) plated in clear bottom 96-well plates were treated with twofold dilutions of compounds of interest. After 5 days of incubation, 15 µL of dye solution (tetrazolium salt) was added to each well. The plates were incubated at 37°C for 4 hours; then, the reaction was stopped to solubilize the formazan product (Cell Titer 96 Nonradioactive Cell Proliferation Assay Promega). Absorbance at 570 ʎ (A570) was recorded using a multimode microplate plate reader (Molecular Devices Spectramax i5, SoftMax Pro 7.0.2 Software). The A570 absorbance reading is directly proportional to the number of viable cells. The values are presented as percentages of cell viability relative to the untreated controls (defined as 100% survival) and plotted against the log of compound concentrations. The log (auranofin derivative) vs cell viability curve with variable slope was generated to calculate TD50 values.

Data set [3] deals with RH T. gondii. As to the kind of experiment: Plaque assay and IC50 determination. The data set is classed as cell-based, Toxoplasma gondii. As to conditions: plaque assay, 5 days; for inhibition of T. gondii growth in vitro: 0–40 µM. On the procedure: We measured the inhibition of parasite growth by plaque assay as modified from a previously established method ([27], [28]). Confluent monolayers of HFF in six-well plates were inoculated with 1 × 10^2 parasites of RH T. gondii. Immediately after, each well received D10 containing specified concentrations of each compound. Plates were incubated undisturbed for 5 days at 37°C in a humidified incubator with 5% CO2. On the fifth day, each well was rinsed once with phosphate-buffered saline (PBS), fixed with 4% paraformaldehyde (15 min at room temperature), and stained with crystal violet for 2–3 min. Plaques (visualized as irregular clear areas of cell lysis against the violet background of intact host cells) were enumerated for each well. To generate the inhibition curve, plaque numbers (represented as a percentage of plaques relative to the no drug control) were plotted vs drug concentration. The IC50 value was calculated from the inhibitor vs normalized response curve with variable slope. The results represented the average of three independent IC50 assays ± standard error of the mean.

In data set [4] the test system is T. gondii in HFF. The data set is described as follows: Egress assay (LDH release). The data set is classed as cell-based, Toxoplasma gondii. The conditions noted are these: 30 hours infection, then 40 min with A23187 5 µM, zaprinast 57 µM or auranofin 5 µM. The method, then:
The egress assay was modified from previously published methods to measure lactate dehydrogenase (LDH) content as a function of egress (host membrane damage induced by parasite egress) ([33], [34]). Confluent monolayers of HFF in a 24-well plate were inoculated with 5 × 10^5 parasites (freshly mechanically released by needle and filtered through a 3 µm filter) for 30 hours before each drug treatment in three technical triplicates. These infected HFF monolayers were rinsed with 37°C Ringer’s solution (Ward’s Science) three times and supplied with 5 µM calcium ionophore A23187 (ACROS), 57 µM Zaprinast (Alfa Aesar), 5 µM auranofin (Enzo Life Sciences), or DMSO control (all in 5 µl) for 40 min in 5% CO2 and 37°C. The culture supernatant was collected from wells and centrifuged at 4°C and 500 g for 5 min. The solution was kept at 4°C and assayed immediately for the LDH content. The A490 reading is directly proportional to a known amount of LDH (standard curve) (CytoTox 96 Nonradioactive Cytotoxicity Assay, Promega). Egress induced by each drug is presented as a relative value after subtracting control levels of LDH induced by DMSO alone (the solvent for all drugs included in this assay) from the levels of LDH induced by the drugs. A t-test to determine the statistical difference between the relative egress triggered by auranofin and A23187 or auranofin and Zaprinast from three independent experiments was used.
For orientation: Release of lactate dehydrogenase indicates damage to the cell membrane.

In data set [5] the test system is YFP+ RH parasites (T. gondii) invading HFF. The data set is described as follows: Invasion assay. It counts as cell-based, Toxoplasma gondii. The method, then: We performed invasion assays with or without pre-treatment of T. gondii tachyzoites with auranofin, as modified from previously described assays ([28][–][31]). We used RH parasites expressing YFP ([32]). First, we determine the best concentration of auranofin to achieve stable host cell morphology and viability (HFF) while maximizing the effect of auranofin in T. gondii by titration of auranofin (doses ranging from 1 to 5 µM). The best auranofin dose fitting our criteria was 3 µM. Therefore, we performed a modified invasion assay using 2.5 × 10^6 parasites freshly lysed YFP+ RH parasites ([29]) that were filtered and centrifuged before each assay as follows: […]
After the 30-min invasion, all host cells were washed with PBS and fixed with 4% paraformaldehyde, blocked with 3% bovine serum albumin (BSA), and then incubated with anti-SAG-1 antibody (DG52) (David Sibley, Washington University in St. Louis) ([4]) for 1 hour, followed by incubation with goat anti-mouse IgG conjugated to Alexa-594 fluorophore (A19069, Thermo Fisher). For quantification, eight randomly selected fields (with a minimum of 300 parasites) were counted for each sample. […] The invasion rate was calculated by dividing the number of intracellular parasites by the total number of parasites counted.

Data set [6] deals with extracellular T. gondii RH parasites. The data set is described as follows: Annexin V assay (phosphatidylserine externalization). It counts as cell-based, Toxoplasma gondii. The conditions noted are these: auranofin 2.5 µM, 24 hours; control 11.2 ± 2.937. On the procedure: (§1) A confluent monolayer of HFF was infected with purified RH parasites (freshly mechanically released by needle and filtered through a 3 µm filter). The monolayer remained undisturbed for 24 hours to allow for invasion and replication. On the day of treatment, extracellular parasites were mechanically released and harvested after differential centrifugation ([35]) at 35 × g for 5 minutes to prevent parasite loss before processing. The supernatant was then collected and centrifuged at 1,350 × g for 10 minutes to pellet the extracellular parasites. Parasites were plated in a 12-well plate (2.7 × 10^7 per well) into 1 mL of D10 in DMSO (control) or auranofin (2.5 µM) containing media and incubated for 24–48 hours at 37°C with 5% CO2 before collection.
Given the smaller size of parasites after auranofin treatment, we evaluated whether T. gondii death occurred by apoptosis via Annexin V assays (Invitrogen). After 24 hours of treatment, parasites were collected, washed with PBS, and resuspended in Annexin binding buffer (10 mM HEPES, 140 mM NaCl, and 2.5 mM CaCl2, pH 7.4) at a concentration of 10^6 parasites per mL. One hundred microliters of this parasite suspension was stained with Annexin V-Alexa fluor conjugate before flow cytometry analysis. A t-test was used to determine the statistical difference between control or auranofin treatment groups from three independent experiments.

Data set [7] concerns YFP+ RH parasites (T. gondii) in HFF. The data set is described as follows: Replication assay. It counts as cell-based, Toxoplasma gondii. On the procedure: Confluent HFF monolayers were infected with 5 × 10^5 YFP+ RH parasites in coverslips. Following 1-hour incubation at 37°C to allow for invasion, the monolayer was rinsed with PBS, and D10 in DMSO (control) or auranofin containing (2.5 µM) media was added back. Coverslips were then incubated for 24 hours to allow for parasite replication. Coverslips were then fixed in 4% paraformaldehyde and mounted with DAPI-containing mounting media. Parasites were identified as DAPI+/YFP+ under fluorescence microscopy. The number of parasites per parasitophorous vacuole was counted across 10 random fields of view per coverslip. At least 100 parasitophorous vacuoles (PV) per condition were counted from three independent experiments. Results were grouped into the following categories according to the number of parasites per PV: 1, 2, 4, and >4 parasites. A chi-square trend test was used to determine the statistical difference between the PV category of the control and auranofin treatment from three independent experiments.

For data set [8], the system named is extracellular T. gondii RH parasites. As to the kind of experiment: Parasite size by flow cytometry (forward scatter). It counts as cell-based, Toxoplasma gondii. As to conditions: auranofin 2.5 µM. On the procedure: as §1
Parasite size after treatment with auranofin was determined by flow cytometry (forward scattering). At the end of each incubation time, parasites (1 × 10^5) were resuspended in 1 mL of PBS to prepare them for flow cytometry.
For orientation: In flow cytometry, cells or beads pass a laser one at a time.

The mark [9] stands for this setting: HFF infected with RH T. gondii, read-out: IC50 (inhibition of parasite growth).
Where [10] appears, read: Fig 7, unit inferred, read-out: IC50.

Where “and” joins values, the source holds several entries; their conditions need not be identical. Equal values may be shown once. Entries after “also recorded” stand apart in the source; their conditions may differ. Read-outs that look alike come from different tables or passages of the source.

The term IC50 denotes the concentration that inhibits the measured activity by half.

Consider `[Cl][Au].c1ccc(P(c2ccccc2)c2ccccc2)cc1` [Compound 31], for which the “toxicity to host cells compared with auranofin” value in data set [1] is “less toxic to host cells than auranofin and compounds 6, 10, and 39”. The “antiparasitic activity against Leishmania spp. compared with auranofin” value in data set [1] (extracellular and intracellular forms) is reported as “higher IC50 than auranofin”. The “TD50 (cytotoxicity in host cells)” value in data set [2] is 178 µM. Also, the half-maximal inhibitory concentration (IC50) in data set [3] (setting [9]) worked out at 1410 nM.
With `OC[C@H]1O[C@H]([S-])[C@H](O)[C@@H](O)[C@@H]1O.[Au+]` [Aurothioglucose, aurothioglucose], the figures for the “inhibition of T. gondii growth in vitro” value in data set [3] and in data set [3] (listed as aurothioglucose) were “did not display inhibitory activity” and “neither aurothioglucose nor aurothiomalate inhibited the growth”, respectively.
`O=C(O)CC([S-])C(=O)O.[Au+]` (stereo not drawn) [Aurothiomalate, aurothiomalate]: the “inhibition of T. gondii growth in vitro” value in data set [3] is given as “neither aurothioglucose nor aurothiomalate inhibited the growth; also recorded: did not display inhibitory activity”.
For `CCCOc1ccccc1-c1nc2nn[nH]c2c(=O)[nH]1` [Zaprinast, zaprinast], the results for the “relative egress level (LDH, normalized to DMSO)” value in data set [4] and in data set [4] (listed as zaprinast) were 0.3272 ± 0.009 and 0.2768 ± 0.034, respectively.
With `CC(=O)OC[C@H]1O[C@@H]([S-])[C@H](OC(C)=O)[C@@H](OC(C)=O)[C@@H]1OC(C)=O.CCP(CC)CC.[Au+]` [Auranofin], the “relative egress level (LDH, normalized to DMSO)” value was 0.2768 ± 0.034 in data set [4]; 0.2768 ± 0.03435 and 0.3272 ± 0.009 in data set [4] (listed as auranofin). Besides, in data set [2], the “TD50 (cytotoxicity in host cells)” value is 5.14 µM. For the same compound, the IC50 in data set [3] (setting [10]) was determined as 560 nM. Also, the “invasion rate (T. gondii that successfully invaded host cells)” value in data set [5] (parasites pre-treated with auranofin 3 µM for 30 min before invasion, control 35%) is recorded as 18%; in data set [5] (without pre-treatment, auranofin 3 µM during 30 min invasion, control 59%) it was 60%. Besides, the “phosphatidylserine externalization (PS) by Annexin V assay” value in data set [6] was 29.16 ± 3.615 relative fluorescent units. Moreover, the “host cell monolayer integrity” value in data set [7] (HFF monolayer, 24 hours of auranofin treatment) is “did not show changes in the monolayer integrity”. The “effect on parasite replication (parasites per parasitophorous vacuole)” value in data set [7] (auranofin 2.5 µM for 24 hours after 1 hour invasion) is recorded as “did not inhibit parasite replication”. For the same compound, the “parasite size (FSC-H)” value came to 152.7 ± 8.225 in data set [8] (24 hours, control 201.2 ± 4.064) and 123.5 ± 7.339 in data set [8] (48 hours, control 169.9 ± 66.25).
With `[Cl][Au][PH](Cc1ccccc1)(c1ccccc1)c1ccccc1` [Compound 6], the “TD50 (cytotoxicity in host cells)” value in data set [2] is 4.87 µM. Also, the 50% inhibitory concentration (IC50) in data set [3] (setting [10]) was determined as 450 nM; in data set [3] (setting [9]) it was 460 nM.
For `CNc1ccc2oc(C[C@H]3O[C@@]4(CC[C@H]3C)O[C@H]([C@H](C)C(=O)c3ccc[nH]3)[C@H](C)C[C@H]4C)nc2c1C(=O)O` [A23187], the “relative egress level (LDH, normalized to DMSO)” value in data set [4] worked out at 0.4533 ± 0.01148.
